Patent US20140120181A1, “COMPOSITION COMPRISING PHOSPHATIDYLCHOLINE AS AN ACTIVE INGREDIENT FOR ATTENUATING TOXICITY OF ANTICANCER AGENT” (AMI Pharm Co., Ltd., priority 2011, published 2014)
“Also recorded” adds a separate entry of the source.

Columns and labels:
[1] = Measurement of body weight change during the test period; type: in vivo, SD rats; conditions: for change of body weight: 6 days
Protocol: 6-week aged male SD rats (albino S.D rat) were bought, stabilized for 1 week, and then divided into 6 groups noted in [table 1] for the test. Breeding environment conditions of 24±2° C., and 12-hour light-dark cycles were maintained, and non-antibiotic general solid feed was used.
For all groups, an agent was administered through intraperitoneal injection.
They were bred while changes in their body weights were measured for 6 days. Then, after they were euthanized, their blood samples 5 cc were collected by a cardiac puncture, and their kidneys were extracted for used in a test.
During the test period, a body weight of the test group was measured.

[2] = tested on: GSH (glutathione) in kidney tissue; assay: Quantification of GSH (glutathione) in kidney tissue; type: in vivo, Wistar-Hanover rats; conditions: cisplatin 6 mg/kg i.p. only (group 13), FIG. 6
Protocol: (§1) Kidney samples collected from example <2-1> were immediately removed, washed in 0.9% saline and weighed. The kidneys were the mince with scissors, were homogenized in 0.1M Tris-HCl buffer (pH 7.4). The homogenization was carried out in Teflon-glass homogenizer (Bandelin, Germany) to obtain 1:10 (w/v) dilution. The homogenate was stored at −70° C. until analysis.
The total GSH content of kidney tissue prepared in the Example <2-3> was determined using a modification of the method of Beutler et al. (Beutler, Duron et al. 1963). The method uses principle that when DTNB (5′5-dithiobis-2-nitro-benzoic acid) and GHS react, 2-nitro-5-thiobenzoic acid (yellow color) are produced. Therefore, the concentration of GSH can be determined by measuring absorbance at 412 nm.
A mitochondrial fraction was prepared by centrifugation at 600 g for 5 mins and samples were added to 5% of metaphosphoric acid (MPA) and allowed to stand for 5 mins to precipitate proteins. 1M of Phosphate buffer (pH 7.0) was added to proteins in the volumetric ratio of 1:4 for homogenization and DTNB (5′5-dithiobis-2-nitro-benzoic acid) were added to proteins in the volumetric ratio of 8:5 for color development. GSH was determined by measuring absorbance at 415 nm (shimadzu UV-1240) and absolute concentrations were calculated using a GSH standard (Sigma, USA).

[3] = tested on: MDA (malondialdehyde) in kidney tissue; assay: Quantification of lipid peroxidation (MDA) in kidney tissue; type: in vivo, Wistar-Hanover rats; conditions: cisplatin 6 mg/kg i.p. only (group 13), FIG. 5
Protocol: as §1
Degradation products of lipid peroxidate comprise a lot of carbonyl compounds and the representative is malondialdehyde, MDA. Therefore, the level of lipid peroxidation can be measured by quantification of MDA.
For quantification of MDA, the method of Buege and Aust (1978) were used. The samples were centrifuged at 12,000 g at 4° C. for 15 min, then 0.3 ml supernatant was removed and mixed with 0.9 ml of 8% trichloroacetic acid (TCA). The sample was again centrifuged at 10,000 g at 4° C. for 5 min. A 1 ml aliquot of supernatant was added to 0.25 ml of 1% TBA, and the resulting solution was heated at 100° C. for 20 min. […] After centrifugation at 3,000 g at 4° C. for 5 min, 1 ml of the n-butanol phase was isolated and the absorbance at 532 nm was measured. The standard curve of MDA was calculated from the absorbance and the amount of MDA per weight of tissue was measured and it is shown in FIG. 5A.
MDA content was calculated with MDA standards (Buege and Aust 1978).

kidney tissues = assay: Observation of a morphological change in kidney tissues (H&E, optical microscope); type: in vivo, SD rats; conditions: CDDP 5 mg/kg i.p. alone (group 3), FIG. 3-B
From the text: A rats kidney obtained from Example <1-1> was fixed in 10% neutral formalin, sliced by microtechnique, and subjected to haematoxylin & eosin staining through a general tissue processing process. Each of the stained kidney tissues was observed by an optical microscope.

[4] = tested on: catalase, GPx (glutathione peroxidase), SOD (superoxide dismutase); assay: Activity of catalase, GPx, SOD in kidney tissue; type: in vivo, Wistar-Hanover rats; conditions: cisplatin 6 mg/kg i.p. only (group 13), FIG. 7
Protocol: as §1
The activities of catalase, GPx, SOD which are anti-oxidative enzymes in kidney tissue were measured by a commercial kit.
Since catalase decomposes H2O2 into water and oxygen, the activity of CAT was measured through decreased absorbance by decomposition of H2O2. The absorbance was measured by using catalase assay kit (Sigma, CAT #100).
The activity of GPx was measured by using Glutathione peroxidase cellular activity assay kit CGP-1 (Sigma Aldrich, Cat. #CGP1). […] The decrease in NADPH absorbance measured at 340 nm, during the oxidation of NADPH to NADP is was indicative of GPx activity.
The activity of SOD is measured using the SOD assay kit (19160 SOD determination kit, Fluka/sigma Aldrich). The amount inhibiting 50% of xanthine oxidase activity per 1 mg of protein was set as 1 unit and the absorbance was measured at 450 nm.

[5] = tested on: BUN (blood urea nitrogen) and creatine; assay: Analysis of kidney function (serum BUN and creatine), oral administration of PC; type: in vivo, Wistar-Hanover rats; conditions: cisplatin 6 mg/kg i.p. alone (group 13), 6 days, FIG. 4
Protocol: Cisplatin and phosphatidylcholne were used as same as Example 1. But, phosphatidylcholne was suspended in 100 mg/ml of distilled water.
Thirty-six of 6-week-old adult male Wistar-Hanover rats (Nara-biotechnology, Seoul, Korea) were purchased and quarantined for 1 week and divided into 6 groups as shown in Table 4. They were maintained at 22±2° C. in 12 hour light dark cycle, and were given a normal laboratory diet (Purina. Korea) and fresh water ad libitum. Their body weight were 200˜220 g. After quarantine period, rats were fasted for 24 hours prior to injection of first phosphatidylcholine, but were allowed free access to water throughout.
In all groups, saline and cisplatin were injected intraperitoneally and phosphatidylcholine was administered orally. […]
Blood collected in Example <2-1> was centrifuged at 4000 rpm for 10 min and serum was separated. The level of BUN (blood urea nitrogen) and creatine in serum was measured.
The level of BUN was measured by Urase-GLDH method (Laboratory reference values. Urea nitrogen (BUN). Rochester, Minn.: Mayo Foundation for Medical Education and Research; November 2010), creatine was measured by Jaffe method (Jaffe method, Lamb E et al, tiez textbook of clinical chemistry and molecular diagnosis, St. louis; elsevier saunders, 2006; 791-801) and the contents were measured Beckman Coulter AU5421 (Beckman Coulter, USA).

rats = assay: Lethality after 6 days, CDDP with or without PC; type: in vivo, SD rats; conditions: PC 400 mg/kg i.p. alone (group 8)
Protocol: As noted in [table 3], a test group was prepared, and administered with a drug. After 6 days, lethality was calculated. An administration method, a test animal and a breeding method, etc. were the same as those in Example <1-1>.

[6] = tested on: BUN (blood urea nitrogen) and creatinine; assay: Test on a kidney function (serum BUN and creatinine), cisplatin nephrotoxicity, intra-peritoneal PC; type: in vivo, SD rats; conditions: PC i.p. 1 hour after CDDP 5 mg/kg i.p.
Protocol: The separated serum was used to measure BUN (blood urea nitrogen) and creatinine.
The measurement of BUN was carried out by using a BUN measuring kit (Young dong diagnostics) in the same manner as described below. A urea agent 0.1 ml was mixed with buffer 20 ml to prepare enzyme buffer, and the prepared enzyme buffer was added to each of 2 test tubes. To one of the test tubes, a to-be-tested serum sample 0.02 ml was added, and to the other test tube, a control reference solution [containing urea-N 60 mg/100 ml] 0.02 ml was added, followed by culturing at 37° C. for 15 min. Then, each test tube was added with chromogenic solution 2 ml, and cultured at 37° C. for 5 min again. By measuring the absorbance at 570 nm, the level of produced BUN was measured.
The measurement of creatinine was carried out by using a creatinine measuring kit (young dong diagnostics) in the same manner as described below. […] Exactly after 15 min, at 515 nm, absorbency was measured.

ICR mice = assay: Lethality reducing effect by paclitaxel (LD50 of paclitaxel with PC pretreatment); type: in vivo; conditions: PC 0, 300, 600 mg/kg i.p. 4 hours before Taxol i.p.; lethality after 24 hours, FIG. 8; listed as phosphatidylcholine
Protocol: 6-week aged ICR mice (Samtako, Korea) were bought, and divided into 15 groups noted in table 5. They were stabilized for 20 hrs under conditions of 24±2° C., and 12-hour light-dark cycles while being fed with non-antibiotic general solid feed. […] After being stabilized, the mice were intra-peritoneally injected with the same phosphatidylcholine as that used in <Example 1-1>. After 4 hours, Taxol™ (BMS©, paclitaxel 6 mg/ml) was intra-peritoneally injected to the mice in which its amount was adjusted in such a manner that paclitaxel can be administered in an amount noted in table 5 below.
After 24 hours from administration of taxol, lethality of mice was measured. Based on the measured data on lethality, LD50 (a paclitaxel dose at lethality of 50%) in each of A, B, and C groups was measured.

| SMILES | change of body weight ([1]; CDDP 5 mg/kg i.p. alone (group 3)) | change of body weight ([1]; CDDP 5 mg/kg i.p. alone (group 3), listed as cisplatin) | body weight decreased by ([1]; CDDP 5 mg/kg i.p. alone (group 3), test period) | level of glutathione in kidney tissue [2] | MDA level in kidney tissue [3] | morphological change in kidney tissues (kidney tissues) | levels of the anti-oxidative enzymes (catalase, GPx, SOD) in kidney tissue [4] | BUN level in serum [5] | creatine level in serum [5] | change of body weight ([1]; PC 400 mg/kg i.p. alone (group 2)) | lethal rate (rats) | PC dose at which nephrotoxicity caused by CDDP was reduced [6] | LD50 of paclitaxel (ICR mice) |
| --- | --- | --- | --- | --- | --- | --- | --- | --- | --- | --- | --- | --- | --- |
| N.N.[Cl][Pt][Cl] [CDDP, cis-dichlorodiammineplatinum] | −7.1% | reduction in body weight | about 7.1% | significantly low compared to control group 11 | very high compared to control group 11 | most epithelial cells in a proximal part and a distal part of the kidney showed a necrotic change through an inflammatory reaction | significantly reduced compared to control group 11 | increase | increase | – | – | – | – |
| CCCCC/C=C/CCCCCCCC(=O)OC(COC(=O)CCCCCCCCCCCCC)COP(=O)([O-])OCC[N+](C)(C)C [PC, 1,2-diacyl-L-3-glycerylphosphorylcholine] | – | – | – | – | – | – | – | – | – | +9.2% | 0% | ≥ 600 mg/kg | tends to increase; also recorded: increases depending on dosage of phosphatidylcholine |
